Reference: patent publication US20250064090A1 (priority 2020, published 2025)
Read-outs that look alike come from different tables or passages of the source.

Tests used:
[1] = test system: E. coli strains HT-99 (donor) and J53R (receptor); assay type: cell-based, Escherichia coli; conditions: for Class of ingredient by conjugation frequency compared to control (in words): single ingredient, 100 mg/L, from Table 1
HT99 or J53R cells = assay type: cell-based, E. coli

| Compound | Conjugation frequency [1] | Conjugation frequency ([1]; 3 hours, 37° C.) | Class of ingredient by conjugation frequency compared to control (in words) [1] | Conjugation compared to control (in words) ([1]; result in words) | Conjugation frequency ([1]; citral alone or mixed with conjugation inhibitors (100 mg of each per mL stock, 10 μL in 10 mL), control 0.0014) | expression of the yqfA gene (hemolysin III family protein) (HT99 or J53R cells) | fatty acid biosynthesis (fabB) gene expression upon treatment with oleic acid (HT99 or J53R cells) | fatty acid degradation (fadB) gene expression upon treatment with oleic acid (HT99 or J53R cells) |
| --- | --- | --- | --- | --- | --- | --- | --- | --- |
| Cc1ccc(C(C)C)cc1O [Carvacrol, carvacrol] | 0.0052 | 0.0044 | conjugation enhancers |  |  |  |  |  |
| O=CC=Cc1ccccc1 [Cinnamaldehyde, cinnamaldehyde] | 0.0014 | 0.0011 | conjugation inert ingredient | not affected |  |  |  |  |
| CC(C)=CCCC(C)=CC=O [Citral, citral] |  | 0.0023 | conjugation enhancers |  | 0.0028 |  |  |  |
| C=CC(C)(O)CCC=C(C)C (stereo not drawn) [Linalool, linalool] |  | 0.00085 | conjugation inhibitors |  |  |  |  |  |
| CCCCCCCC/C=C\CCCCCCCC(=O)O [Oleic acid, oleic acid] |  | 0.00011 | conjugation inhibitors |  |  | reduced | inhibition | inducing |
| O=C(OC[C@H]1O[C@@H](OC(=O)c2cc(O)c(O)c(OC(=O)c3cc(O)c(O)c(O)c3)c2)[C@H](OC(=O)c2cc(O)c(O)c(OC(=O)c3cc(O)c(O)c(O)c3)c2)[C@@H](OC(=O)c2cc(O)c(O)c(OC(=O)c3cc(O)c(O)c(O)c3)c2)[C@@H]1OC(=O)c1cc(O)c(O)c(OC(=O)c2cc(O)c(O)c(O)c2)c1)c1cc(O)c(O)c(OC(=O)c2cc(O)c(O)c(O)c2)c1 [Tannic acid, tannic acid] |  | 0.00007 | conjugation inhibitors |  |  |  |  |  |
| Cc1ccc(C(C)C)c(O)c1 [Thymol, thymol] |  | 0.0019 | conjugation enhancers |  |  |  |  |  |
